Experimental findings from patent US12077503B2, “Substituted cyclic amides and their use as herbicides” (FMC CORPORATION, priority 2015, dated 2024) are described below.

Each structure is given as a SMILES string.

What all share (assay type): in vivo
For experiment [1], the system named is barnyardgrass (Echinochloa crus-galli). Nature of the experiment: Test A preemergence. The note with it: Echinochloa crus-galli, pre-emergence, 240 h, preemergence, read-out: Plant response rating, Barnyardgrass; for pest or weed control at 125 g/ha: 125 g ai/ha, visual rating after approx. 10 d, 0 to 100 scale where 0 is no effect and 100 is complete control; for pest or weed control at 500 g/ha: 500 g ai/ha, 0 to 100 scale, 0 = no effect, 100 = complete control. An outline of the steps:
(§1)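 Compounds were formulated in a non-phytotoxic solvent mixture with surfactant and applied as a preemergence directed soil spray after seeding, or sprayed postemergence over plants 2 to 10 cm tall at the one- to two-leaf stage. Evaluation after about 10 d compared treated with untreated controls, using a scale from 0 (no effect) to 100 (complete control).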

In experiment [2] the test system is pigweed (Amaranthus retroflexus). Nature of the experiment: Test A preemergence. The note with it: Amaranthus retroflexus, pre-emergence, 240 h, preemergence, read-out: Plant response rating, Pigweed; for pest or weed control at 125 g/ha: 125 g ai/ha, visual rating after approx. 10 d, 0 to 100 scale where 0 is no effect and 100 is complete control; for pest or weed control at 500 g/ha: 500 g ai/ha, 0 to 100 scale, 0 = no effect, 100 = complete control.

Experiment [3] has as its system ragweed (common ragweed, Ambrosia elatior). Nature of the experiment: Test A preemergence. The note with it: Ambrosia artemisiifolia, pre-emergence, 240 h, preemergence, read-out: Plant response rating, Ragweed; for pest or weed control at 125 g/ha: 125 g ai/ha, visual rating after approx. 10 d, 0 to 100 scale where 0 is no effect and 100 is complete control; for pest or weed control at 500 g/ha: 500 g ai/ha, 0 to 100 scale, 0 = no effect, 100 = complete control. The method in brief:
as §1

Experiment [4] concerns giant foxtail (Setaria faberii). Nature of the experiment: Test A preemergence. The note with it: Setaria faberi, pre-emergence, 240 h, preemergence, read-out: Plant response rating, Foxtail, Giant; for pest or weed control at 125 g/ha: 125 g ai/ha, visual rating after approx. 10 d, 0 to 100 scale where 0 is no effect and 100 is complete control; for pest or weed control at 500 g/ha: 500 g ai/ha, 0 to 100 scale, 0 = no effect, 100 = complete control. An outline of the steps: as §1

In experiment [5] the test system is Kochia (Kochia scoparia). Nature of the experiment: Test A preemergence. The note with it: Bassia scoparia, pre-emergence, 240 h, preemergence, read-out: Plant response rating, Kochia; for pest or weed control at 125 g/ha: 125 g ai/ha, visual rating after approx. 10 d, 0 to 100 scale where 0 is no effect and 100 is complete control; for pest or weed control at 500 g/ha: 500 g ai/ha, 0 to 100 scale, 0 = no effect, 100 = complete control. The method in brief: as §1

For experiment [6], the system named is ryegrass, Italian (Italian ryegrass, Lolium multiflorum). Nature of the experiment: Test A preemergence. As to conditions: Lolium multiflorum, pre-emergence, 240 h, preemergence, read-out: Plant response rating, Ryegrass, Italian; for pest or weed control at 125 g/ha: 125 g ai/ha, visual rating after approx. 10 d, 0 to 100 scale where 0 is no effect and 100 is complete control. The method in brief:
as §1

Experiment [7] relates to barnyardgrass (Echinochloa crus-galli). Nature of the experiment: Test A postemergence. As to conditions: Echinochloa crus-galli, post-emergence, 240 h, 125 g ai/ha, postemergence; visual injury after approximately 10 d; 0 to 100 scale (0 no effect, 100 complete control); read-out: Plant response rating, Barnyardgrass. The method in brief:
as §1

For experiment [8], the system named is pigweed (Amaranthus retroflexus). Nature of the experiment: Test A postemergence. As to conditions: Amaranthus retroflexus, post-emergence, 240 h, 125 g ai/ha, postemergence; visual injury after approximately 10 d; 0 to 100 scale (0 no effect, 100 complete control); read-out: Plant response rating, Pigweed. An outline of the steps:
as §1

Experiment [9] has as its system Galium (catchweed bedstraw, Galium aparine). Nature of the experiment: Test A postemergence. As to conditions: Galium, post-emergence, 240 h, 125 g ai/ha, postemergence; visual injury after approximately 10 d; 0 to 100 scale (0 no effect, 100 complete control); read-out: Plant response rating, Galium. The method in brief:
as §1

Experiment [10] deals with ragweed (common ragweed, Ambrosia elatior). Nature of the experiment: Test A postemergence. The note with it: Ambrosia artemisiifolia, post-emergence, 240 h, 125 g ai/ha, postemergence; visual injury after approximately 10 d; 0 to 100 scale (0 no effect, 100 complete control); read-out: Plant response rating, Ragweed. The method in brief: as §1
Experiment [11] has as its system giant foxtail (Setaria faberii). Nature of the experiment: Test A postemergence. The note with it: Setaria faberi, post-emergence, 240 h, 125 g ai/ha, postemergence; visual injury after approximately 10 d; 0 to 100 scale (0 no effect, 100 complete control); read-out: Plant response rating, Foxtail, Giant. An outline of the steps: as §1
For experiment [12], the system named is blackgrass (Alopecurus myosuroides). Nature of the experiment: Test A postemergence. The note with it: Alopecurus myosuroides, post-emergence, 240 h, 125 g ai/ha, postemergence; visual injury after approximately 10 d; 0 to 100 scale (0 no effect, 100 complete control); read-out: Plant response rating, Blackgrass. The method in brief:
as §1

Experiment [13] concerns Kochia (Kochia scoparia). Nature of the experiment: Test A postemergence. The note with it: Bassia scoparia, post-emergence, 240 h, 125 g ai/ha, postemergence; visual injury after approximately 10 d; 0 to 100 scale (0 no effect, 100 complete control); read-out: Plant response rating, Kochia. An outline of the steps: as §1
Experiment [14] deals with ryegrass, Italian (Italian ryegrass, Lolium multiflorum). Nature of the experiment: Test A postemergence. As to conditions: Lolium multiflorum, post-emergence, 240 h, 125 g ai/ha, postemergence; visual injury after approximately 10 d; 0 to 100 scale (0 no effect, 100 complete control); read-out: Plant response rating, Ryegrass, Italian. The method in brief: as §1
Another experiment relates to corn (Zea mays). Nature of the experiment: Test A postemergence. The note with it: Zea mays, post-emergence, 240 h, 125 g ai/ha, postemergence; visual injury after approximately 10 d; 0 to 100 scale (0 no effect, 100 complete control). The method in brief: as §1

Turning to `CN1C[C@H](c2cc(F)cc(F)c2)[C@@H](C(=O)NC2CCc3ccccc32)C1=O` (some centres unmarked) [Compound 755], the pest or weed control at 125 g/ha (in experiment [1]; in experiment [2]; in experiment [3]; in experiment [4]; with Kochia (Kochia scoparia) [5]; in experiment [6]) was 0% in each case. In addition, the pest or weed control at 125 g/ha in experiment [7], in experiment [8], in [9], in [10], in [11] and in experiment [12] was 0% each time. Moreover, the pest or weed control at 125 g/ha (with Kochia (Kochia scoparia) [13]; in experiment [14]) was 0% throughout. Also, the pest or weed control at 500 g/ha in experiment [1] stood at 0%; in [2], 0%; in [3] it was 0%; in experiment [4] it was 0%; in the experiment with Kochia (Kochia scoparia) [5] it was 0%; in experiment [6] (500 g ai/ha, 0 to 100 scale, 0 = no effect, 100 = complete control), 0%. Also, the Corn plant response rating (crop injury, 0 = no effect, 100 = complete kill) at 125 g/ha in the experiment with corn (Zea mays) worked out at 0%.

Consider `Cc1ccc(NC(=O)[C@H]2C(=O)N(C)C[C@@H]2c2cc(F)cc(F)c2)c(F)c1` [Compound 760], for which the pest or weed control at 125 g/ha was found to be 100% in experiment [1]; 0% in [2]; 0% in [3]; 100% in [4]; 0% with Kochia (Kochia scoparia) [5]; 0% in [6]. For the same compound, the pest or weed control at 125 g/ha in experiment [7] stood at 80%; in [8], 0%; in experiment [9], 0%; in experiment [10], 0%; in experiment [11], 80%; in experiment [12], 0%. Also, the pest or weed control at 125 g/ha (with Kochia (Kochia scoparia) [13]; in [14]) was 0% each time. For the same compound, the pest or weed control at 500 g/ha in experiment [1] worked out at 100%; in [2], 0%; in experiment [3], 0%; in [4], 100%; in the experiment on Kochia (Kochia scoparia) [5], 60%. The same compound showed a Corn plant response rating (crop injury, 0 = no effect, 100 = complete kill) at 125 g/ha in the experiment on corn (Zea mays) of 0%.

With `Cc1ccc([C@H]2CNC(=S)[C@@H]2C(=O)Nc2cccc(F)c2F)cc1C` [Compound 765], the pest or weed control at 125 g/ha in experiment [1] is 100%; in experiment [2], 0%; in [3], 0%; in experiment [4], 30%; in the experiment on Kochia (Kochia scoparia) [5], 0%; in [6], 0%. For the same compound, the pest or weed control at 125 g/ha in experiment [7] turned out to be 70%; in [8] it was 0%; in experiment [9], 0%; in [10] it was 0%; in experiment [11], 0%; in experiment [12], 0%. The pest or weed control at 125 g/ha came to 0% with Kochia (Kochia scoparia) [13] and 40% in [14]. The pest or weed control at 500 g/ha was 100% in experiment [1]; 0% in experiment [2]; 30% in [3]; 80% in experiment [4]; 0% in the experiment with Kochia (Kochia scoparia) [5]. The Corn plant response rating (crop injury, 0 = no effect, 100 = complete kill) at 125 g/ha with corn (Zea mays) was found to be 0%.

Turning to `COc1cc([C@H]2CN(C)C(=O)[C@@H]2C(=O)Nc2ccccc2SC)ccc1C(F)(F)F` [Compound 769], the pest or weed control at 125 g/ha came to 70% in experiment [1]; 30% in experiment [2]; 30% in experiment [3]; 90% in [4]; 30% in the experiment with Kochia (Kochia scoparia) [5]; 0% in [6]. Also, the pest or weed control at 125 g/ha in experiment [7] is 50%; in experiment [8] it was 0%; in experiment [9] it was 50%; in experiment [10], 0%; in [11], 70%; in experiment [12], 0%. Moreover, the pest or weed control at 125 g/ha in the experiment with Kochia (Kochia scoparia) [13] was found to be 0%; in experiment [14], 30%. The pest or weed control at 500 g/ha turned out to be 100% in experiment [1]; 80% in experiment [2]; 70% in experiment [3]; 100% in experiment [4]; 70% in the experiment on Kochia (Kochia scoparia) [5]. The compound also had a Corn plant response rating (crop injury, 0 = no effect, 100 = complete kill) at 125 g/ha in the experiment on corn (Zea mays) of 0%.

`Cc1ccc(NC(=O)[C@H]2C(=O)N(C)C[C@@H]2c2cc(F)cc(F)c2)c(F)c1F` [Compound 771]: the pest or weed control at 125 g/ha in experiment [1] worked out at 90%; in experiment [2] it was 0%; in experiment [3] it was 0%; in experiment [4], 90%; in the experiment on Kochia (Kochia scoparia) [5] it was 50%; in [6] it was 40%. The pest or weed control at 125 g/ha in experiment [7] was determined as 90%; in experiment [8], 0%; in [9] it was 50%; in experiment [10] it was 20%; in experiment [11] it was 90%; in experiment [12] it was 70%. The pest or weed control at 125 g/ha with Kochia (Kochia scoparia) [13] turned out to be 50%; in experiment [14], 20%. The pest or weed control at 500 g/ha in [1] amounted to 90%; in experiment [2], 0%; in experiment [3], 50%; in [4], 90%; in the experiment with Kochia (Kochia scoparia) [5] it was 80%. The compound also displayed a Corn plant response rating (crop injury, 0 = no effect, 100 = complete kill) at 125 g/ha in the experiment on corn (Zea mays) of 40%.
